From patent US20250129087A1, “SALT CRYSTALS” (INTRA-CELLULAR THERAPIES, INC., priority 2022, published 2025) come the findings set out here.

One data set is described as follows: pH of the filtrated solutions (pH indication paper). The following applies: pH of the filtrated solution. Format: physicochemical. Here is the method:
Samples are filtered and diluted (in a mixture of acetonitrile/water (1/1)) for LC analysis. Solubilities are calculated with the use of a calibration line. Furthermore, the pH values of the filtrated solutions are determined using pH indication paper.
Compound `CN1C(=O)c2c(nn(Cc3ccc(-c4cccc(F)n4)cc3)c2Nc2ccccc2)N2C1=N[C@@H]1CCC[C@@H]12.O=C(O)CCCCC(=O)O` [Adipate Salt 1] gave a pH of 4.
With `CN1C(=O)c2c(nn(Cc3ccc(-c4cccc(F)n4)cc3)c2Nc2ccccc2)N2C1=N[C@@H]1CCC[C@@H]12.CN1C(=O)c2c(nn(Cc3ccc(-c4cccc(F)n4)cc3)c2Nc2ccccc2)N2C1=N[C@@H]1CCC[C@@H]12.O=C(O)CCCCC(=O)O` [Adipate Salt 2], the pH is listed as 4-5.
Regarding `CN1C(=O)c2c(nn(Cc3ccc(-c4cccc(F)n4)cc3)c2Nc2ccccc2)N2C1=N[C@@H]1CCC[C@@H]12.O=C(O)CCCCC(=O)O` [Adipate Salt 3], the pH was 4-5.
In the case of `CN1C(=O)c2c(nn(Cc3ccc(-c4cccc(F)n4)cc3)c2Nc2ccccc2)N2C1=N[C@@H]1CCC[C@@H]12.O=C(O)c1ccccc1` [Benzoate Salt 1], the pH worked out at 5.
For `CN1C(=O)c2c(nn(Cc3ccc(-c4cccc(F)n4)cc3)c2Nc2ccccc2)N2C1=N[C@@H]1CCC[C@@H]12.O=S(=O)(O)c1ccccc1` [Besylate Salt 1], the pH amounted to 1.
`CC1(C)C2CCC1(CS(=O)(=O)O)C(=O)C2.CN1C(=O)c2c(nn(Cc3ccc(-c4cccc(F)n4)cc3)c2Nc2ccccc2)N2C1=N[C@@H]1CCC[C@@H]12` [Camsylate Salt 1] came in with a pH of 1.
On to `CC1(C)C2CCC1(CS(=O)(=O)O)C(=O)C2.CN1C(=O)c2c(nn(Cc3ccc(-c4cccc(F)n4)cc3)c2Nc2ccccc2)N2C1=N[C@@H]1CCC[C@@H]12` [Camsylate Salt 2], for which the pH is given as 1.
`CCCCCC(=O)O.CN1C(=O)c2c(nn(Cc3ccc(-c4cccc(F)n4)cc3)c2Nc2ccccc2)N2C1=N[C@@H]1CCC[C@@H]12` [Caproate Salt 1]: the pH is on record as 5.
With `CCCCCCCC(=O)O.CN1C(=O)c2c(nn(Cc3ccc(-c4cccc(F)n4)cc3)c2Nc2ccccc2)N2C1=N[C@@H]1CCC[C@@H]12` [Caprylate Salt 1], the pH is 5.
For the compound `CN1C(=O)c2c(nn(Cc3ccc(-c4cccc(F)n4)cc3)c2Nc2ccccc2)N2C1=N[C@@H]1CCC[C@@H]12.O=C(O)C(Cl)Cl` [Dichloroacetate Salt 1], the pH is 4-5.
As to `CN1C(=O)c2c(nn(Cc3ccc(-c4cccc(F)n4)cc3)c2Nc2ccccc2)N2C1=N[C@@H]1CCC[C@@H]12.O=S(=O)(O)CCS(=O)(=O)O` [Edisylate Salt 1], the pH is 1.
The compound `CCS(=O)(=O)O.CN1C(=O)c2c(nn(Cc3ccc(-c4cccc(F)n4)cc3)c2Nc2ccccc2)N2C1=N[C@@H]1CCC[C@@H]12` [Esylate Salt 1] displayed a pH of 5.
`CN1C(=O)c2c(nn(Cc3ccc(-c4cccc(F)n4)cc3)c2Nc2ccccc2)N2C1=N[C@@H]1CCC[C@@H]12.CN1C(=O)c2c(nn(Cc3ccc(-c4cccc(F)n4)cc3)c2Nc2ccccc2)N2C1=N[C@@H]1CCC[C@@H]12.O=C(O)/C=C/C(=O)O` [Fumarate Salt 1] yielded a pH of 2.
Regarding `CN1C(=O)c2c(nn(Cc3ccc(-c4cccc(F)n4)cc3)c2Nc2ccccc2)N2C1=N[C@@H]1CCC[C@@H]12.O=C(O)[C@@H](O)[C@H](O)[C@H](O)[C@@H](O)C(=O)O` [Galactarate Salt 1], the pH came to 5.
The same measure, in the same setting: as for `CN1C(=O)c2c(nn(Cc3ccc(-c4cccc(F)n4)cc3)c2Nc2ccccc2)N2C1=N[C@@H]1CCC[C@@H]12.Cl` [HCl Salt 1], the figure is 4; as for `CN1C(=O)c2c(nn(Cc3ccc(-c4cccc(F)n4)cc3)c2Nc2ccccc2)N2C1=N[C@@H]1CCC[C@@H]12.Cl` [HCl Salt 2], 4-5; as for `CN1C(=O)c2c(nn(Cc3ccc(-c4cccc(F)n4)cc3)c2Nc2ccccc2)N2C1=N[C@@H]1CCC[C@@H]12.Cl` [HCl Salt 3], 3.
Compound `CN1C(=O)c2c(nn(Cc3ccc(-c4cccc(F)n4)cc3)c2Nc2ccccc2)N2C1=N[C@@H]1CCC[C@@H]12.Cl` [HCl Salt 4] returned a pH of 4.
The same measure, in the same setting: the value for `CN1C(=O)c2c(nn(Cc3ccc(-c4cccc(F)n4)cc3)c2Nc2ccccc2)N2C1=N[C@@H]1CCC[C@@H]12.O=C(O)c1ccncc1` [Isonicotinate Salt 1] was 5; that for `CC(O)C(=O)O.CN1C(=O)c2c(nn(Cc3ccc(-c4cccc(F)n4)cc3)c2Nc2ccccc2)N2C1=N[C@@H]1CCC[C@@H]12` [Lactate Salt 1] was 4-5.
Take `CCCCCCCCCCCC(=O)O.CN1C(=O)c2c(nn(Cc3ccc(-c4cccc(F)n4)cc3)c2Nc2ccccc2)N2C1=N[C@@H]1CCC[C@@H]12` [Laurate Salt 1]: the pH is 5.
On the same count and under the same terms, the value for `CN1C(=O)c2c(nn(Cc3ccc(-c4cccc(F)n4)cc3)c2Nc2ccccc2)N2C1=N[C@@H]1CCC[C@@H]12.O=C(O)C[C@H](O)C(=O)O` [Malate Salt 1] was 4.
Still for that read-out and setting: as for `CN1C(=O)c2c(nn(Cc3ccc(-c4cccc(F)n4)cc3)c2Nc2ccccc2)N2C1=N[C@@H]1CCC[C@@H]12.O=C(O)C(O)c1ccccc1` [Mandelate Salt 1], the figure is 2; as for `CN1C(=O)c2c(nn(Cc3ccc(-c4cccc(F)n4)cc3)c2Nc2ccccc2)N2C1=N[C@@H]1CCC[C@@H]12.O=C(O)C(O)c1ccccc1` [Mandelate Salt 2], 4.
Regarding `CN1C(=O)c2c(nn(Cc3ccc(-c4cccc(F)n4)cc3)c2Nc2ccccc2)N2C1=N[C@@H]1CCC[C@@H]12.CS(=O)(=O)O` [Mesylate Salt 1], the pH is recorded as 5.
Compound `CN1C(=O)c2c(nn(Cc3ccc(-c4cccc(F)n4)cc3)c2Nc2ccccc2)N2C1=N[C@@H]1CCC[C@@H]12.O=S(=O)(O)c1cccc2c(S(=O)(=O)O)cccc12` [Napadisylate Salt 1] came in with a pH of 1.
`CN1C(=O)c2c(nn(Cc3ccc(-c4cccc(F)n4)cc3)c2Nc2ccccc2)N2C1=N[C@@H]1CCC[C@@H]12.O=C(O)c1cccnc1` [Nicotinate Salt 1] came in with a pH of 5.
`CN1C(=O)c2c(nn(Cc3ccc(-c4cccc(F)n4)cc3)c2Nc2ccccc2)N2C1=N[C@@H]1CCC[C@@H]12.O=C(O)c1cc(=O)[nH]c(=O)[nH]1.O=C(O)c1cc(=O)[nH]c(=O)[nH]1` [Orotate Salt 1] had a pH of 5.
Same read-out and setting: the value for `CN1C(=O)c2c(nn(Cc3ccc(-c4cccc(F)n4)cc3)c2Nc2ccccc2)N2C1=N[C@@H]1CCC[C@@H]12.O=C(O)C(=O)O` [Oxalate Salt 1] was 4; that for `CN1C(=O)c2c(nn(Cc3ccc(-c4cccc(F)n4)cc3)c2Nc2ccccc2)N2C1=N[C@@H]1CCC[C@@H]12.O=C(O)C(=O)O` [Oxalate Salt 2] was 1.
Still for that read-out and setting: the value for `CN1C(=O)c2c(nn(Cc3ccc(-c4cccc(F)n4)cc3)c2Nc2ccccc2)N2C1=N[C@@H]1CCC[C@@H]12.O=C(O)C(=O)O` [Oxalate Salt 3] was 1; that for `CN1C(=O)c2c(nn(Cc3ccc(-c4cccc(F)n4)cc3)c2Nc2ccccc2)N2C1=N[C@@H]1CCC[C@@H]12.O=C(O)CCC(=O)C(=O)O` [Oxo-glutarate Salt 1] was 3.
Consider `CCCCCCCCCCCCCCCC(=O)O.CN1C(=O)c2c(nn(Cc3ccc(-c4cccc(F)n4)cc3)c2Nc2ccccc2)N2C1=N[C@@H]1CCC[C@@H]12` [Palmitate Salt 1], for which the pH is 5-6.
Same read-out and setting: the value for `CN1C(=O)c2c(nn(Cc3ccc(-c4cccc(F)n4)cc3)c2Nc2ccccc2)N2C1=N[C@@H]1CCC[C@@H]12.O=P(O)(O)O` [Phosphate Salt Control] was 5.
As to `CCC(=O)O.CN1C(=O)c2c(nn(Cc3ccc(-c4cccc(F)n4)cc3)c2Nc2ccccc2)N2C1=N[C@@H]1CCC[C@@H]12` [Propionate Salt 1], the pH stood at 5.
Take `CN1C(=O)c2c(nn(Cc3ccc(-c4cccc(F)n4)cc3)c2Nc2ccccc2)N2C1=N[C@@H]1CCC[C@@H]12.O=C(O)c1ccccc1O` [Salicylate Salt 1]: the pH turned out to be 5.
The same measure, in the same setting: as for `CN1C(=O)c2c(nn(Cc3ccc(-c4cccc(F)n4)cc3)c2Nc2ccccc2)N2C1=N[C@@H]1CCC[C@@H]12.O=C(O)c1ccccc1O` [Salicylate Salt 2], the figure is 4-5; as for `CN1C(=O)c2c(nn(Cc3ccc(-c4cccc(F)n4)cc3)c2Nc2ccccc2)N2C1=N[C@@H]1CCC[C@@H]12.O=C(O)CCC(=O)O` [Succinate Salt 1], 4; as for `CN1C(=O)c2c(nn(Cc3ccc(-c4cccc(F)n4)cc3)c2Nc2ccccc2)N2C1=N[C@@H]1CCC[C@@H]12.O=C(O)CCC(=O)O` [Succinate Salt 2], 4.
`CN1C(=O)c2c(nn(Cc3ccc(-c4cccc(F)n4)cc3)c2Nc2ccccc2)N2C1=N[C@@H]1CCC[C@@H]12.O=S(=O)(O)O` [Sulfate Salt 1] came in with a pH of 1.
Regarding `CN1C(=O)c2c(nn(Cc3ccc(-c4cccc(F)n4)cc3)c2Nc2ccccc2)N2C1=N[C@@H]1CCC[C@@H]12.O=C(O)C(O)C(O)C(=O)O` [Tartrate Salt 1], the pH is reported as 4-5.
Consider `CN1C(=O)c2c(nn(Cc3ccc(-c4cccc(F)n4)cc3)c2Nc2ccccc2)N2C1=N[C@@H]1CCC[C@@H]12.Cc1ccc(S(=O)(=O)O)cc1` [Tosylate Salt 1], for which the pH was determined as 1.
In the case of `CN1C(=O)c2c(nn(Cc3ccc(-c4cccc(F)n4)cc3)c2Nc2ccccc2)N2C1=N[C@@H]1CCC[C@@H]12.Cc1ccc(S(=O)(=O)O)cc1` [Tosylate Salt 2], the pH amounted to 5.
Same read-out and setting: as for `CN1C(=O)c2c(nn(Cc3ccc(-c4cccc(F)n4)cc3)c2Nc2ccccc2)N2C1=N[C@@H]1CCC[C@@H]12.O=C(O)C(F)(F)F` [Trifluoroacetate Salt 1], the figure is 7; as for `CN1C(=O)c2c(nn(Cc3ccc(-c4cccc(F)n4)cc3)c2Nc2ccccc2)N2C1=N[C@@H]1CCC[C@@H]12.O=C(O)c1ccc2ccccc2c1O` [Xinafoate Salt 1], 7.

The same data set, now with this note: pH of the filtrated solution, listed as 4-acetamido-benzoate Salt 1.
On to `CC(=O)Nc1ccc(C(=O)O)cc1.CN1C(=O)c2c(nn(Cc3ccc(-c4cccc(F)n4)cc3)c2Nc2ccccc2)N2C1=N[C@@H]1CCC[C@@H]12` [Acetamido Benzoate Salt 1], for which the pH was found to be 5.

The data set is the same for the next values; noted with them: pH of the filtrated solution, listed as 4-acetamido-benzoate Salt 2.
For the compound `CC(=O)Nc1ccc(C(=O)O)cc1.CN1C(=O)c2c(nn(Cc3ccc(-c4cccc(F)n4)cc3)c2Nc2ccccc2)N2C1=N[C@@H]1CCC[C@@H]12` [Acetamido Benzoate Salt 2], the pH is recorded as 4.
